This note sets out measurements from patent US12558331B2, “Pregabalin formulations and use thereof” (priority 2019, dated 2026).

Data set [1] in a line: Water solubility of pregabalin as the function of pH at 5° C. It counts as physicochemical. As for the experimental part: Water solubility at 5° C. of pregabalin as such and with the addition of 2.0 mg/ml sodium benzoate was measured as the function of pH.
Another data set deals with cats. The data set is described as follows: Randomized, double-blind, placebo-controlled clinical study: transportation and veterinary visit anxiety and fear in cats. The following applies: 5 mg/kg orally. Format: in vivo, cat. As to the method: A randomized, double-blind, placebo-controlled parallel-group, multicenter clinical study was conducted for evaluating the efficacy and safety of pregabalin for the treatment or prevention of transportation and veterinary visit anxiety and fear in cats. Cats were randomised to receive either 5 mg/kg (n=108) of pregabalin or placebo (n=101) orally as a single dose approximately 90 minutes before transportation to the veterinary clinic.
The study had two primary efficacy variables. The first primary variable was the owner's assessment of the treatment effect based on the cat's stress, anxiety and/or fear during transportation in a car. The second primary variable was the investigator's assessment of the treatment effect based on the cat's stress, anxiety and/or fear during clinical examination at the veterinary clinic. Both were assessed using a numerical rating scale with the scores 1-5.

Where [2] appears, read: single dose approximately 90 minutes before transportation.

Regarding `CC(C)C[C@H](CN)CC(=O)O` [pregabalin], the “Water solubility as the function of pH” value in data set [1] (pregabalin as such, when pH is lower than about 4.4, FIG. 1) is given as “increased significantly”. For the same compound, the “Physical stability (precipitation of pregabalin)” value in data set [1] (with addition of 2.0 mg/ml sodium benzoate, FIG. 1) is on record as “further improved the physical stability”. The Ataxia and sedation entry in the data set on cats (single dose) is recorded as “did not produce marked ataxia or excessive sedation”. In the data set with cats (setting [2]), the “Investigator's assessment of treatment effect during clinical examination, % of cats, Score 1 Excellent” value is given as 14.3%; the “Investigator's assessment of treatment effect during clinical examination, % of cats, Score 2 Good” value is given as 41.0%; the “Investigator's assessment of treatment effect during clinical examination, % of cats, Score 3 Fair” value was 27.6%; the “Investigator's assessment of treatment effect during clinical examination, % of cats, Score 4 Poor” value is given as 10.5%. Besides, in the data set on cats (setting [2]), the “Investigator's assessment of treatment effect during clinical examination, % of cats, Score 5 Very poor” value is reported as 6.7%; the “Owner's assessment of treatment effect during transportation, % of cats, Score 1 Excellent” value was 17.1%; the “Owner's assessment of treatment effect during transportation, % of cats, Score 2 Good” value is 34.3%; the “Owner's assessment of treatment effect during transportation, % of cats, Score 3 Fair” value came out at 23.8%. Besides, in the data set with cats (setting [2]), the “Owner's assessment of treatment effect during transportation, % of cats, Score 4 Poor” value is 14.3% and the “Owner's assessment of treatment effect during transportation, % of cats, Score 5 Very poor” value was found to be 10.5%.
